Some test systems named below: BT-549 breast; HCC-2998 colon; MDA-MB-435; NCI-H460 lung; OVCAR-3 ovarian; OVCAR-5 ovarian; OVCAR-8 ovarian; SK-MEL-2 melanoma; SR leukemia; T-47D breast.
Experiment in all cases: NCI-60 cell line screen, 48 h

Where “and” joins values, the source holds several entries; their conditions need not be identical. Equal values may be shown once.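 Tested at 5 concentrations; 48 h exposure; 96-well plates; endpoints linearly interpolated, else capped at highest concentration. GI50 marks 50% less growth. Definition used: TGI = concentration required for complete inhibition of growth.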

As to `COc1ccc(/C=C\c2cc(OC)c(OC)c(OC)c2)c(NS(=O)(=O)c2ccc(F)cc2)c1O`, the GI50 with BT-549 breast is 0.0619 µM; in the test with HCC-2998 colon, 0.169 µM; with MDA-MB-435, 0.0204 µM; with NCI-H460 lung it was 0.0419 µM; in the test on OVCAR-3 ovarian, 0.0322 µM; in the test with OVCAR-5 ovarian it was 0.202 µM. The GI50 with OVCAR-8 ovarian is 0.128 µM; with SK-MEL-2 melanoma, 0.184 µM; in the test with SR leukemia it was 0.041 µM; in the test on T-47D breast, 38.5 µM. In addition, the TGI is 16.8 µM in the test on BT-549 breast; 6.9 µM with HCC-2998 colon; 0.0515 µM in the test on MDA-MB-435; 26.1 µM with NCI-H460 lung; 1.41 µM in the test on OVCAR-3 ovarian; > 100 µM with OVCAR-5 ovarian. Further, the TGI in the test on OVCAR-8 ovarian was > 100 µM; in the test on SK-MEL-2 melanoma it was > 100 µM; with SR leukemia it was > 68.1 µM; in the test with T-47D breast, > 100 µM.
For the compound `COC1C(=O)CCC2(CO2)C1(O)C1(C)OC1CC=C(C)C` (centres undefined), the TGI is > 100 µM in the test with BT-549 breast; 46.5 µM with HCC-2998 colon; > 100 µM in the test on MDA-MB-435; > 100 µM in the test on NCI-H460 lung; > 100 µM with OVCAR-3 ovarian; > 100 µM with OVCAR-5 ovarian. For the same compound, the TGI in the test on OVCAR-8 ovarian, in the test with SK-MEL-2 melanoma, in the test on SR leukemia and with T-47D breast was > 100 µM each time.
In the case of `COc1cc2c(cc1[N+](=O)[O-])C(=O)C(Br)(Br)CCC2`, the TGI in the test on BT-549 breast was 4.97 µM; with HCC-2998 colon, 32.5 µM; in the test on MDA-MB-435, 10.9 µM; in the test with NCI-H460 lung, 20.1 µM; in the test with OVCAR-3 ovarian, 10.5 µM; in the test on OVCAR-5 ovarian, 4.42 µM. The TGI in the test with OVCAR-8 ovarian is 5.54 µM; with SK-MEL-2 melanoma it was 4.8 µM; in the test on SR leukemia it was 4.96 µM; in the test on T-47D breast, > 27.2 µM.
With `CO/C(=C1/NC(=O)C(Cc2ccc(O)c(Br)c2)N(C)C(=O)C(C)NC(=O)CCC/C=C(\C)CCC(C)OC1=O)c1ccccc1` (centres undefined), the GI50 with BT-549 breast is 0.0368 µM; in the test on HCC-2998 colon, < 0.0154 µM; in the test on MDA-MB-435 it was 0.0385 µM; in the test with OVCAR-3 ovarian, < 0.0164 µM; in the test with OVCAR-5 ovarian it was 0.0445 µM; in the test on OVCAR-8 ovarian, 0.0437 µM. For the same compound, the GI50 in the test with T-47D breast was 0.0354 µM. Also, the TGI was 0.105 µM in the test on BT-549 breast; 0.311 µM in the test with HCC-2998 colon; 13.3 µM with MDA-MB-435; 3.49 µM with NCI-H460 lung; 0.0376 µM with OVCAR-3 ovarian; > 35 µM in the test with OVCAR-5 ovarian. Further, the TGI with OVCAR-8 ovarian was 6.41 µM; in the test on SK-MEL-2 melanoma, 0.0469 µM; in the test on SR leukemia it was > 100 µM; in the test on T-47D breast it was 1.34 µM.
Turning to `CC1[C@@H]2CC=C3[C@H]4CCC5Cc6nc7c(nc6C[C@@]5(C)C4CC(=O)[C@]32CO[C@]12OC(C)(C)CC2O)CC1CC[C@@H]2C3=C[C@H]4O[C@@]5(O[C@@](C)(CO)C[C@@H]5O)C(C)[C@@]4(O)[C@]3(C)[C@@H](O)CC2[C@]1(C)C7` (some centres undefined), the GI50 was 0.000751 µM in the test on BT-549 breast; 0.292 µM with HCC-2998 colon; 0.00111 µM in the test on MDA-MB-435; 0.000268 µM and 0.000365 µM in the test on NCI-H460 lung; 0.0713 µM and 0.498 µM in the test with OVCAR-3 ovarian; 0.013 µM and 0.00425 µM in the test on OVCAR-5 ovarian. The GI50 with SK-MEL-2 melanoma was 0.0011 µM and 0.00208 µM; in the test with SR leukemia, 0.000181 µM; in the test with T-47D breast, 0.246 µM. Besides, the TGI in the test on BT-549 breast is 0.363 µM; in the test with HCC-2998 colon, 0.912 µM and > 3.65 µM; with MDA-MB-435, 0.0168 µM; in the test with NCI-H460 lung, 0.013 µM and 0.116 µM; in the test on OVCAR-3 ovarian, 0.62 µM and 3.33 µM; with OVCAR-5 ovarian it was 0.139 µM and 0.0237 µM. In addition, the TGI in the test on OVCAR-8 ovarian was 0.745 µM and > 3.65 µM; in the test on SK-MEL-2 melanoma, 0.0242 µM and 0.0699 µM; in the test with SR leukemia it was 0.00856 µM.
For the compound `CC(=O)Nc1cc2c3c(cccc3c1)-c1ccccc1-2`, the GI50 in the test on BT-549 breast was 64.6 µM; with HCC-2998 colon, 18.8 µM; with MDA-MB-435 it was 30 µM; in the test on NCI-H460 lung it was 29.6 µM; in the test on OVCAR-3 ovarian, 52.2 µM; in the test on OVCAR-5 ovarian it was 16.7 µM. Moreover, the GI50 was 45.9 µM in the test with OVCAR-8 ovarian, 70 µM in the test on SK-MEL-2 melanoma, 28.6 µM in the test on SR leukemia and 37.3 µM in the test with T-47D breast. Besides, the TGI with BT-549 breast is > 100 µM; in the test with HCC-2998 colon, 52.5 µM; in the test on MDA-MB-435, > 100 µM; in the test on NCI-H460 lung, > 100 µM; in the test on OVCAR-3 ovarian, > 100 µM; in the test with OVCAR-5 ovarian, 35.7 µM. In addition, the TGI with OVCAR-8 ovarian, in the test with SK-MEL-2 melanoma, in the test with SR leukemia and in the test with T-47D breast was > 100 µM throughout.
On to `Cc1[nH]nc(C(=O)N/N=C/c2ccccc2Cl)c1N=NN(C)C`, for which the TGI with BT-549 breast was 12.8 µM; in the test on HCC-2998 colon, > 100 µM; in the test with MDA-MB-435, > 100 µM; in the test with NCI-H460 lung, > 100 µM; in the test with OVCAR-3 ovarian, > 100 µM; in the test on OVCAR-5 ovarian, > 100 µM. The TGI in the test on OVCAR-8 ovarian, with SK-MEL-2 melanoma, with SR leukemia and in the test on T-47D breast was > 100 µM throughout.
Consider `CC(=O)ON=C1C=CC(=C(C#N)c2ccccc2)C=C1`, for which the GI50 in the test with BT-549 breast is 3.9 µM; in the test with HCC-2998 colon it was 11.7 µM; in the test on MDA-MB-435 it was 0.283 µM; in the test with NCI-H460 lung, 1.51 µM; in the test with OVCAR-3 ovarian it was 1.03 µM; in the test with OVCAR-5 ovarian it was 3.22 µM. Besides, the GI50 with OVCAR-8 ovarian is 2.07 µM; in the test on SK-MEL-2 melanoma, 2.19 µM; in the test with SR leukemia, 0.619 µM; with T-47D breast, 1.05 µM. Also, the TGI was determined as 12.5 µM with BT-549 breast; 32.2 µM in the test on HCC-2998 colon; 2.28 µM with MDA-MB-435; 8.41 µM in the test with OVCAR-3 ovarian; 9.28 µM with OVCAR-5 ovarian; 15 µM with OVCAR-8 ovarian. Besides, the figures for the TGI in the test with SK-MEL-2 melanoma, with SR leukemia and in the test on T-47D breast were 15.6 µM, 16.5 µM and 11.3 µM, respectively.
Regarding `O=C(/C=C/C=C/c1ccc2c(c1)OCO2)N/N=C\c1ccc(O)cc1O`, the GI50 with BT-549 breast was 2.25 µM; in the test on HCC-2998 colon it was 2.44 µM; in the test on MDA-MB-435, 4.35 µM; in the test with NCI-H460 lung, 1.58 µM; in the test with OVCAR-3 ovarian it was 0.345 µM; in the test with OVCAR-5 ovarian, 3.87 µM. Besides, the GI50 in the test with OVCAR-8 ovarian was 2.67 µM; with SK-MEL-2 melanoma, 5.51 µM; in the test with SR leukemia, 0.571 µM; in the test with T-47D breast, 2.55 µM. Further, the TGI with BT-549 breast was found to be 7.49 µM; in the test with HCC-2998 colon, 18.3 µM; in the test on MDA-MB-435, 19 µM; with NCI-H460 lung, 10.5 µM; in the test with OVCAR-3 ovarian, 12.8 µM; with OVCAR-5 ovarian, 27.4 µM. Moreover, the TGI in the test with OVCAR-8 ovarian was 29.9 µM; with SK-MEL-2 melanoma, 27 µM; in the test on SR leukemia, > 100 µM; in the test with T-47D breast, 24 µM.

Source of the values: PubChem BioAssay (NCI).
